Assays:
Conditions in all cases: 48 h
NOMO1 = experiment: cell viability relative to DMSO control; higher = less cytotoxic
Summary of the method: (§1)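 Viability is a per-plate percentage relative to DMSO wells, with cell-free wells as background. CellTiter-Glo One luminescence was read after 48 h at 37°C on 1536-well plates (5 μl) of NOMO1 or SEM (500 cells/well) or P12-Ichikawa (1000 cells/well) leukemia cells. The cells had been adapted for at least four passages in each medium and pin-dosed with library compounds in DMSO from 47 μM to 0.79 nM in 11 threefold steps.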

P12-Ichikawa [1] = experiment: as above
Summary of the method: as §1

SEM cells [2] = experiment: as above
Summary of the method: as §1

P12-Ichikawa [3] = experiment: AUC of viability dose-response curve (% viability x log10 dose units); higher = less sensitive
Summary of the method: (§2)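 In 1536-well plates, leukemia cells adapted to each medium (500 or 1000 cells/well) were exposed for 48 h at 37°C to library compounds in DMSO across 11 threefold doses, 47 μM down to 0.79 nM. Viability was read by CellTiter-Glo One luminescence and normalised per plate to DMSO and cell-free wells. A four-parameter log-logistic fit over log10 doses was integrated by trapezoidal rule. This yielded the area under the curve, with over-full-viability curves scaled and quality-control failures dropped.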

SEM cells [4] = experiment: as above
Summary of the method: as §2

CCN1\C=C(\C(O)=O)C(=O)C2=CC=C(C)N=C12
cell viability [%]
Conditions	NOMO1	P12-Ichikawa [1]	SEM cells [2]
HPLM + 10% dialyzed FBS, 0.000781 µM	75.3	88.3	72.7
HPLM + 10% dialyzed FBS, 0.00234 µM	87.7	93.8	70.2
HPLM + 10% dialyzed FBS, 0.00702 µM	99.4	101	82.7
HPLM + 10% dialyzed FBS, 0.0211 µM	103	96.3	87.4
HPLM + 10% dialyzed FBS, 0.0632 µM	102	101	99
HPLM + 10% dialyzed FBS, 0.19 µM	116	93.7	97.5
HPLM + 10% dialyzed FBS, 0.569 µM	95.8	105	92
HPLM + 10% dialyzed FBS, 1.71 µM	100	97.6	94.8
HPLM + 10% dialyzed FBS, 5.12 µM	81.7	95.7	96.4
HPLM + 10% dialyzed FBS, 15.4 µM	88.1	105	19.8
HPLM + 10% dialyzed FBS, 46.1 µM	47.4	93.6	97.3
RPMI 5 mM glucose + 10% FBS, 0.000781 µM	81.9	79.7	86
RPMI 5 mM glucose + 10% FBS, 0.00234 µM	103	82.3	93.3
RPMI 5 mM glucose + 10% FBS, 0.00702 µM	98.2	90	102
RPMI 5 mM glucose + 10% FBS, 0.0211 µM	89.1	90.1	97.1
RPMI 5 mM glucose + 10% FBS, 0.0632 µM	103	84.6	93
RPMI 5 mM glucose + 10% FBS, 0.19 µM	96.6	89.3	108
RPMI 5 mM glucose + 10% FBS, 0.569 µM	100	89.7	90.9
RPMI 5 mM glucose + 10% FBS, 1.71 µM	91	90.6	98.9
RPMI 5 mM glucose + 10% FBS, 5.12 µM	99.9	88.8	103
RPMI 5 mM glucose + 10% FBS, 15.4 µM	90.6	98.8	13.6
RPMI 5 mM glucose + 10% FBS, 46.1 µM	56	97	76.5
RPMI 5 mM glucose + 10% dialyzed FBS, 0.000781 µM	66.6	77.2	86.9
RPMI 5 mM glucose + 10% dialyzed FBS, 0.00234 µM	76.6	90.6	82.3
RPMI 5 mM glucose + 10% dialyzed FBS, 0.00702 µM	71.2	87.1	103
RPMI 5 mM glucose + 10% dialyzed FBS, 0.0211 µM	80.1	91	97.9
RPMI 5 mM glucose + 10% dialyzed FBS, 0.0632 µM	83.2	96	86.3
RPMI 5 mM glucose + 10% dialyzed FBS, 0.19 µM	83.5	88.6	111
RPMI 5 mM glucose + 10% dialyzed FBS, 0.569 µM	80.5	86.4	103
RPMI 5 mM glucose + 10% dialyzed FBS, 1.71 µM	89.5	87.4	96.6
RPMI 5 mM glucose + 10% dialyzed FBS, 5.12 µM	82.5	91.3	66
RPMI 5 mM glucose + 10% dialyzed FBS, 15.4 µM	81.6	92.4	21.3
RPMI 5 mM glucose + 10% dialyzed FBS, 46.1 µM	61.7	90.1	78.5

AUC of viability dose-response curve
Conditions	HPLM + 10% dialyzed FBS	RPMI 5 mM glucose + 10% FBS	RPMI 5 mM glucose + 10% dialyzed FBS
P12-Ichikawa [3]	466	426	427
SEM cells [4]	397	425	410

From the supplement of paper PMC11451515
